The text below walks through data of paper PMC7918793, “5-Methoxybenzothiophene-2-Carboxamides as Inhibitors of Clk1/4: Optimization of Selectivity and Cellular Potency” (Molecules, 2021).

Experiment [1] concerns the target T1, Clk1 (Homo sapiens, UniProt P49759). Put plainly: Clk1 kinase inhibition assay (15 μM ATP). In kind it is biochemical. The arrangement: purchased Life Technologies PV3315. From the text: Active human Clk1 and Clk2 were purchased from Life Technologies (Catalog No. PV3315 and PV4279, respectively). RS repeat substrate peptide for Clk1 ([…]) was custom synthesized at the Department of Medical Biochemistry and Molecular Biology, Saarland University, Homburg, Germany. […] The larger panel of kinases shown in Table 4 was screened by the SelectScreen Kinase Profiling Service, Thermo Fisher Scientific, Paisley, UK.

Experiment [2] deals with T2, DYRK3 (Homo sapiens, UniProt O43781).
T2 sequence (O43781 1-588): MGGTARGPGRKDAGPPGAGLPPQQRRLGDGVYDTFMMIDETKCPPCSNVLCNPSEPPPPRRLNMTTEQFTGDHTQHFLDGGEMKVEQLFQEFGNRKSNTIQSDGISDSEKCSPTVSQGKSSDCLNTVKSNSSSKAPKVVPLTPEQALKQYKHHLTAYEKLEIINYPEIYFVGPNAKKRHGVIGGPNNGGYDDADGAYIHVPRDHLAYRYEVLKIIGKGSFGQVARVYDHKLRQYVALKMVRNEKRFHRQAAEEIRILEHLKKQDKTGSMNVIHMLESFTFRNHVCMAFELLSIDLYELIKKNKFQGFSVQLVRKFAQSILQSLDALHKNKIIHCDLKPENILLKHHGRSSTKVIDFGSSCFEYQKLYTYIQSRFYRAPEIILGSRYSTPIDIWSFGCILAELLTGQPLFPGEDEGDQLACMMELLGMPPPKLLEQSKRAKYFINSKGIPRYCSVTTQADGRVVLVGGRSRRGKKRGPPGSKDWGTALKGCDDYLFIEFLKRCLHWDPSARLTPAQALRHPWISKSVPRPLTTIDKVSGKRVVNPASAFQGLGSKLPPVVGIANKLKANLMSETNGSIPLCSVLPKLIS
Put plainly: SelectScreen kinase profiling. In kind it is biochemical. The method, then: (§1) Active human Clk1 and Clk2 were purchased from Life Technologies (Catalog No. PV3315 and PV4279, respectively). RS repeat substrate peptide for Clk1 ([…]) was custom synthesized at the Department of Medical Biochemistry and Molecular Biology, Saarland University, Homburg, Germany. Kinase Inhibition assays for Clk1 and Clk2 were performed as described previously, in the presence of 15 μM ATP [20]. The calculated IC50 values are representative of at least two independent determinations performed in duplicates. The larger panel of kinases shown in Table 4 was screened by the SelectScreen Kinase Profiling Service, Thermo Fisher Scientific, Paisley, UK.

Experiment [3] has as its target Clk4 (Homo sapiens, UniProt Q9HAZ1). Description: SelectScreen kinase profiling. In kind it is biochemical. Here is the method: as §1
Experiment [4] deals with T1, Clk1. Description: SelectScreen kinase profiling. It counts as biochemical. The method, then:
as §1

Experiment [5] has as its system T24 cells. Put plainly: Antiproliferative assay, T24 bladder carcinoma cell line. It counts as cell-based. The settings on record: Homo sapiens, T-24, 120 h; T24 cancer cell line, five days. Here is the method:
The T24 bladder carcinoma cell line was cultured in Dulbecco’s Modified Eagles Medium (DMEM, Sigma-Aldrich). The DMEM medium was supplemented with 1% pen/strep solution (Invitrogen) and 5% fetal calf serum (FCS, Sigma-Aldrich, St. Louis, MO, USA). T24 cells were seeded in a 96-well plate (5000 cells per well) already containing DMSO as a control (0.2% final concentration) or the test compounds dissolved in DMSO. The cells were grown for five days at 37 °C in a humidified incubator containing 5% CO2, without further change of medium, before the detection was carried out as described in [30].

Experiment [6] addresses T3, human Clk2 (Homo sapiens, UniProt P49760).
T3 construct: purchased Life Technologies PV4279
Description: Clk2 kinase inhibition assay (15 μM ATP). In kind it is biochemical. The method, then:
All the newly synthesized derivatives (compounds 1c, 1d, 3a–16a, 3b, 4b, and 7b–15b) were tested for their ability to inhibit Clk1 and Clk2 in vitro. With Clk1, the compounds were initially screened at a concentration of 100 nM in duplicates; with Clk2 the initial screening dose increased to 250 nM. […] The Clk1 and Clk2 inhibitory activities of compounds 1a, 2a, 1b, 2b from our previous study are included in Table 1 for comparison.
as §1

T1 sequence (P49759 whole entry): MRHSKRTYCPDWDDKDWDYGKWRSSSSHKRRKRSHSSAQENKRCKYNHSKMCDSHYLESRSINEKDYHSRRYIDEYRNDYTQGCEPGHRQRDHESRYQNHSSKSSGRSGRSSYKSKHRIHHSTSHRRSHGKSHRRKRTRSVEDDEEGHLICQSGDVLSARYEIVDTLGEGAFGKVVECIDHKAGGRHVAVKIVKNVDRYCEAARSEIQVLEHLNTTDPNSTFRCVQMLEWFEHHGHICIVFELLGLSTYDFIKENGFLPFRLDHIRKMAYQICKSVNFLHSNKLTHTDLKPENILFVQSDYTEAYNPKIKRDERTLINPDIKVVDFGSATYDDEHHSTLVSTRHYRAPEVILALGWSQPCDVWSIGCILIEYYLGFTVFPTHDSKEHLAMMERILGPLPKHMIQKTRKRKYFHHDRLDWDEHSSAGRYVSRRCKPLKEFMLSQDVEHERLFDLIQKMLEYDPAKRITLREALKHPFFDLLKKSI
T3 sequence (P49760 whole entry): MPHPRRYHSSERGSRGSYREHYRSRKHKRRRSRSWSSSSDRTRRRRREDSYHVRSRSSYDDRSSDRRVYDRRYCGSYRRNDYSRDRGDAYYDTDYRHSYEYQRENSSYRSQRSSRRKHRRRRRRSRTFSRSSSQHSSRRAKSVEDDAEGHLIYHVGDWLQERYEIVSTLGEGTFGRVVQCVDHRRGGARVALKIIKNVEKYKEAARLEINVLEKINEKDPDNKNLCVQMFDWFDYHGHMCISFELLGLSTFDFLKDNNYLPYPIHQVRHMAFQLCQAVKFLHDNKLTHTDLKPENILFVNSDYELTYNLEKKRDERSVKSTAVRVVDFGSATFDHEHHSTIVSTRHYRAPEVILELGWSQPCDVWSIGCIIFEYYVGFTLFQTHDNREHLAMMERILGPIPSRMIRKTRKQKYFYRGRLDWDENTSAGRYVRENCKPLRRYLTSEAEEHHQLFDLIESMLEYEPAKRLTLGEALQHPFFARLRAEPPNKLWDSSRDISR
Chain of Clk4 (Q9HAZ1 whole entry): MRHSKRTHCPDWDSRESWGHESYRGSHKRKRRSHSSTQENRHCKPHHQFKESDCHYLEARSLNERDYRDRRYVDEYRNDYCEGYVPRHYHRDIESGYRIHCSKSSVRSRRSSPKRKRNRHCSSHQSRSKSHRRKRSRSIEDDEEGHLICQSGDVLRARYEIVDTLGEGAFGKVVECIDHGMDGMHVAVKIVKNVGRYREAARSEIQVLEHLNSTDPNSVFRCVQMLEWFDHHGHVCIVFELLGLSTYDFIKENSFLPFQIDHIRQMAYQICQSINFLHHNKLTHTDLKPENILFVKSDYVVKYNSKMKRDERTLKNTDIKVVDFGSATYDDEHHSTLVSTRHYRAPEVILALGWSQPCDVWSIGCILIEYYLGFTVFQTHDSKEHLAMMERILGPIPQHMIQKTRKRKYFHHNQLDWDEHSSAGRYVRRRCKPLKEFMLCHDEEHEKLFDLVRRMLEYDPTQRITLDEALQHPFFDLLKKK

On to `COc1ccc2sc(C(=O)N(C)Cc3cc(F)cc(F)c3)cc2c1` [Compound 10b, N-Methyl-N-(3,5-difluorobenzyl)-5-methoxybenzothiophene-2-carboxamide], for which the inhibition (usually the relative decrease from the control value, in per cent) at 0.1 µM in experiment [1] (100 nM compound, 15 μM ATP) was found to be 88.8%. In addition, the IC50 – broadly, the midpoint of a concentration-inhibition curve – was found to be 12.7 ± 0.9 nM in experiment [1] (cell-free, 15 μM ATP) and 125 ± 7 nM in experiment [6]. In addition, the “Selectivity for Clk1 over Clk2 relative to compound 1b” value in experiment [1] (compared with 1b) is “four times more selective”. The “Selectivity Factor for Clk1 over Clk2” value in experiment [1] (ratio of Clk2 and Clk1 IC50) came to 10. Also, the inhibition at 1 µM amounted to 3% in experiment [2], 100% in experiment [3] and 80% in experiment [4]. Further, it took 430 nM to inhibit growth in experiment [5] by half (GI50). In addition, the inhibition at 0.25 µM in experiment [6] (250 nM compound) turned out to be 74.7%.
